Data from article PMC4580457, “Use of Labelled tLyP-1 as a Novel Ligand Targeting the NRP Receptor to Image Glioma” (PLoS ONE, 2015).
Peptide text beside a SMILES is read from it. * marks the point of attachment. 5FAM = O=C1OC2(c3ccc(O)cc3Oc3cc(O)ccc32)c2ccc(C(=O)*)cc21

Assay: in vivo
Design: species or system BALB/C athymic nude mice
Settings: BALB/C athymic nude, mouse, iv, 150 uL of 1 mM, T/NT ratio
Procedure: Mice with U87MG tumor xenografts (n = 10) were randomly divided into an experimental group (n = 5) and control group (n = 5). The mice in the experimental group were intravenously injected with 150 μL of FAM-tLyP-1 (1mM), while the control group received 150 μL of FAM-labeled control peptide (1mM). The mice were sacrificed after 1 h by cervical dislocation under ketamine/xylazine anesthesia. The tumor and normal organs were then removed, washed with PBS at least three times, and then collected for imaging ex vivo. FAM-tLyP-1 uptake in the tumor and normal organs was described by a blinded observer under blue light with an exposure time of 60 s, using the Kodak in-Vivo Imaging System F (Kodak, American), and processed for fluorescence intensity analysis. The fluorescence intensity was analyzed visually based on the brightness of the green light indicating uptake of FAM-tLyP-1.
The intensity of FAM-tLyP-1 uptake in the tumor and normal organs was analyzed blindly using the Kodak MI analysis software (Kodak, American). The fluorescence intensity was analyzed visually from high to low levels based on a color scale of white, red, yellow, green, blue, and black. Regions of interest (ROIs) were drawn around the border of the tumor and normal organs on the fluorescence images and the average fluorescence intensity was measured. The tumor/non-tumor ratios (T/NT ratios) were calculated by dividing the fluorescence intensity in the tumor by that of the normal organs.

SMILES | tissue to tissue ratio at 1 h (T/brain) | tissue to tissue ratio at 1 h (T/heart) | tissue to tissue ratio at 1 h (T/intestine) | tissue to tissue ratio at 1 h (T/kidney) | tissue to tissue ratio at 1 h (T/liver) | tissue to tissue ratio at 1 h (T/lung) | tissue to tissue ratio at 1 h (T/muscle) | tissue to tissue ratio at 1 h (T/spleen)
CSCC[C@H](N)C(=O)N[C@@H](C)C(=O)N[C@@H](CCC(N)=O)C(=O)N[C@@H](CCCCNC(=O)c1ccc2c(c1)C(=O)OC21c2ccc(O)cc2Oc2cc(O)ccc21)C(=O)N[C@H](C(=O)N[C@@H](CO)C(=O)N[C@@H](Cc1c[nH]cn1)C(=O)O)[C@@H](C)O [FAM-control peptide] (H-MAQK(5FAM)TSH-OH) | 1.32 ± 0.15 | 1.94 ± 0.26 | 0.87 ± 0.3 | 0.57 ± 0.51 | 1.28 ± 0.25 | 1.4 ± 0.1 | 1.31 ± 0.14 | 1.75 ± 0.17
C[C@@H](O)[C@H](NC(=O)[C@H](CCCNC(=N)N)NC(=O)[C@H](CCCCNC(=O)c1ccc2c(c1)C(=O)OC21c2ccc(O)cc2Oc2cc(O)ccc21)NC(=O)[C@H](CC(N)=O)NC(=O)CNC(=O)[C@@H](N)CS)C(=O)N[C@@H](CCCNC(=N)N)C(=O)O [FAM-tLyP-1] (H-CGNK(5FAM)RTR-OH) | 3.44 ± 0.83 | 4.61 ± 1 | 0.84 ± 0.35 | 0.88 ± 0.74 | 2.34 ± 0.36 | 3.29 ± 0.79 | 2.87 ± 0.45 | 
